Results taken from patent publication US11046691B1 (IDEAYA BIOSCIENCES, INC., priority 2018, dated 2021).

Target: T1, hMAT2A (Homo sapiens (Human), UniProt P31153)
Test: Malachite Green Assay (MAT2A enzyme inhibition)
Format: biochemical
Conditions: hMAT2A 50 nM, substrates 500 uM each, 1 hour
Description: The ability of the compound of present disclosure to inhibit MAT2A enzyme was determined using the Malachite Green or Phosphate Sensor Fluorescence Assay described below.
L-methionine Substrate: Alfa Aesar catalog #J61904
ATP Substrate: Alfa Aesar cat #J60336
Malachite Green Detection Reagent: Millipore Sigma catalog #MAK307-1KT
Assay buffer: 50 mM Tris, pH 7.5/50 mM KCl/10 mM MgCl2/0.01% Brij-35/1 mM DTT/0.1% BGG
The plate was centrifuged at 1000 rpm for 1 minute and then incubated at room temperature for 1 hour. 5 μL of malachite green detection reagent was added to all the test wells and the plate was centrifuged at 1000 rpm for 1 minute and then incubated at room temperature for 30 minutes. The plate was read for absorbance at 620 nm on a plate reader (e.g., Infinite M1000).

T1 sequence (P31153 whole entry): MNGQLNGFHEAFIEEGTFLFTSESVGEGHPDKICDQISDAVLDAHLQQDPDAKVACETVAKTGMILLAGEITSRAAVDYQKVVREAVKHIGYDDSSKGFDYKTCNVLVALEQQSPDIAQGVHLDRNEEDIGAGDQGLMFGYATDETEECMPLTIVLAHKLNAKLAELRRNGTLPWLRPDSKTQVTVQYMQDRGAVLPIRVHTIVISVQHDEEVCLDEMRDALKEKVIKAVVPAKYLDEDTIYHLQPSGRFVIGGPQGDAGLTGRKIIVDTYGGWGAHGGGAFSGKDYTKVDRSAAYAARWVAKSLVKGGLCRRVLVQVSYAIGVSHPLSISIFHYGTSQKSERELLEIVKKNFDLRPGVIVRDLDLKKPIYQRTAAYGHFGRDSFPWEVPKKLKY

Row | SMILES | IC50 [nM]
1 | CNc1nc(=O)n(-c2ncccn2)c2cc(Cl)ccc12 | < 200
2 | CNc1nc(=O)n(-c2cnccn2)c2cc(Cl)ccc12 | 200 to 500
3 | CNc1nc(=O)n(-c2cncnc2)c2cc(Cl)ccc12 | < 200
4 | CNc1nc(=O)n(-c2cn[nH]c2)c2cc(Cl)ccc12 | < 200
5 | CNc1nc(=O)n(-c2cc(O)cc(F)c2)c2cc(Cl)ccc12 | < 200
6 | CNc1nc(=O)n(-c2ccncc2)c2cc(Cl)ccc12 | 1000 to 10000
7 | CNc1nc(=O)n(-c2nccs2)c2cc(Cl)ccc12 [Example 17, 7-chloro-4-(methylamino)-1-(thiazol-2-yl)-quinazolin-2(1H)-one] | < 200
8 | CNc1nc(=O)n(-c2cncs2)c2cc(Cl)ccc12 [Example 18, 7-chloro-4-(methylamino)-1-(thiazol-5-yl)-quinazolin-2(1H)-one] | < 200
9 | CN(C)c1nc(=O)n(-c2ccc(F)cc2)c2cc(Cl)ccc12 [Example 36, 4-(dimethylamino)-7-chloro-1-(4-fluorophenyl)-hydroquinazolin-2-one] | < 200
10 | CN(C)c1nc(=O)n(-c2cc(O)cc(F)c2)c2cc(Cl)ccc12 [Example 37, 4-(dimethylamino)-7-chloro-1-(5-fluoro-3-hydroxyphenyl)hydro-quinazolin-2-one] | < 200
11 | CN(C)c1nc(=O)n(-c2ccccc2)c2c(Cl)c(Cl)ccc12 [Example 42, 7,8-dichloro-4-(dimethylamino)-1-phenylquinazolin-2(1H)-one] | 200 to 500
12 | Cc1c(Cl)ccc2c(N(C)C)nc(=O)n(-c3ccccc3)c12 [Example 43, 7-chloro-4-(dimethylamino)-8-methyl-1-phenyl-quinazolin-2(1H)-one] | 1000 to 10000
13 | CNc1nc(=O)n(-c2cccc(CCO)c2)c2cc(Cl)ccc12 [Example 47, 7-chloro-1-[3-(2-hydroxyethyl)phenyl]-4-(methylamino)-hydroquinazolin-2-one] | < 200
14 | CNc1nc(=O)n(-c2cccc(CCCO)c2)c2cc(Cl)ccc12 [Example 48, 7-chloro-1-[3-(3-hydroxypropyl)-phenyl]-4-(methylamino)hydro-quinazolin-2-one] | < 200
15 | CN(C)c1nc(=O)n(-c2cccc(NS(C)(=O)=O)c2)c2cc(Cl)ccc12 [Example 52, N-(3-(7-chloro-4-(dimethylamino)-2-oxoquinazolin-1 (2H)-yl)phenyl)-methanesulfonamide] | < 200
16 | CN(C)c1nc(=O)n(-c2cccc(O)c2)c2cc(Cl)ccc12 [Example 54] | < 200

Results, then the molecule that gave them:

Row | IC50 [nM] | SMILES
17 | 200 to 500 | CNc1nc(=O)n(-c2ccccn2)c2cc(Cl)ccc12
18 | < 200 | CNc1nc(=O)n(-c2ccccc2)c2cc(Br)ccc12
19 | < 200 | CNc1nc(=O)n(-c2ccccc2)c2cc(Cl)c(F)cc12
20 | < 200 | CNc1nc(=O)n(-c2ccccc2)c2cc(Cl)cc(F)c12
21 | < 200 | CNc1nc(=O)n(-c2ccccc2)c2cc(Cl)ccc12 [Example 2, 7-chloro-4-(methylamino)-1-phenylquinazolin-2(1H)-one]
22 | 200 to 500 | O=c1nc(NC2COC2)c2ccc(Cl)cc2n1-c1ccccc1 [Example 21, 7-Chloro-4-(oxetan-3-ylamino)-1-phenylquinazolin-2(1H)-one]
23 | 200 to 500 | O=c1nc(N[C@H]2CCOC2)c2ccc(Cl)cc2n1-c1ccccc1 [Example 22, (S)-7-chloro-1-phenyl-4-((tetrahydro-furan-3-yl)amino)-quinazolin-2(1H)-one]
24 | 200 to 500 | O=c1nc(NCc2ccccc2)c2ccc(Cl)cc2n1-c1ccccc1 [Example 23, 4-(benzylamino)-7-chloro-1-phenyl-quinazolin-2(1H)-one]
25 | < 200 | O=c1nc(N2CCC2)c2ccc(Cl)cc2n1-c1ccccc1 [Example 25, 4-(azetidin-1-yl)-7-chloro-1-phenyl-quinazolin-2(1H)-one]
26 | < 200 | O=c1nc(N2CC[C@H](O)C2)c2ccc(Cl)cc2n1-c1ccccc1 [Example 26, (S)-7-chloro-4-(3-hydroxypyrrolidin-1-yl)-1-phenylquinazolin-2(1H)-one]
27 | 1000 to 10000 | CN1CCN(c2nc(=O)n(-c3ccccc3)c3cc(Cl)ccc23)CC1 [Example 27, 7-chloro-4-(4-methylpiperazin-1-yl)-1-phenyl-quinazolin-2(1H)-one]
28 | 200 to 500 | O=c1nc(N2CCOCC2)c2ccc(Cl)cc2n1-c1ccccc1 [Example 28, 7-chloro-4-morpholino-1-phenyl-quinazolin-2(1H)-one]
29 | 1000 to 10000 | O=c1nc(-n2cccn2)c2ccc(Cl)cc2n1-c1ccccc1 [Example 29, 7-chloro-1-phenyl-4-(1H-pyrazol-1-yl)quinazolin-2(1H)-one]
30 | 500 to 1000 | O=c1nc(NCC(F)F)c2ccc(Cl)cc2n1-c1ccccc1 [Example 31, 7-chloro-4((2,2-difluoroethyl)amino)-1-phenyl-quinazolin-2 (1H)-one]
31 | 200 to 500 | O=c1nc(Nc2ccccn2)c2ccc(Cl)cc2n1-c1ccccc1 [Example 32, 7-chloro-1-phenyl-4-(pyridin-2-yl-amino)quinazolin-2(1H)-one]
32 | < 200 | CN(C)c1nc(=O)n(-c2ccccc2)c2cc(Br)ccc12 [Example 34, 7-bromo-4-(dimethylamino)-1-phenyl-quinazolin-2(1H)-one]
33 | < 200 | CN(C)c1nc(=O)n(-c2ccccc2)c2cc(F)ccc12 [Example 35, 4-(dimethylamino)-7-fluoro-1-phenyl-quinazolin-2(1H)-one]
34 | < 200 | O=c1nc(N2CCC2)c2ccc(Cl)cc2n1-c1cc(O)cc(F)c1 [Example 38, 4-azetidinyl-7-chloro-1-(5-fluoro-3-hydroxy-phenyl)hydroquinazolin-2-one]
35 | < 200 | CN(c1nc(=O)n(-c2cccc(F)c2)c2cc(Cl)ccc12)C1CC1 [Example 39, 7-chloro-4-(cyclopropylmethylamino)-1-(3-fluorophenyl)hydroquinazolin-2-one]
36 | < 200 | CNc1nc(=O)n(-c2ccccc2)c2cc(C)ccc12 [Example 44, 7-methyl-4-(methylamino)-1-phenyl-quinazolin-2(1H)-one]
37 | < 200 | CNc1nc(=O)n(-c2ccccc2)c2cc(C3CC3)ccc12 [Example 45, 7-cyclopropyl-4-(methylamino)-1-phenylquinazolin-2(1H)-one]
38 | < 200 | CNc1nc(=O)n(-c2cccc(O)c2)c2cc(Cl)ccc12 [Example 46, 7-chloro-1-(3-hydroxyphenyl)-4-(methylamino)-hydroquinazolin-2-one]
39 | < 200 | CNc1nc(=O)n(-c2ccccc2)c2cc(OC)ccc12 [Example 49, 7-methoxy-4-(methylamino)-1-phenyl-quinazolin-2(1H)-one]
40 | < 200 | CNc1nc(=O)n(-c2ccccc2)c2cc(C#N)ccc12 [Example 50, 4-(methylamino)-2-oxo-1-phenyl-1,2-dihydro-quinazoline-7-carbonitrile]
41 | < 200 | CNc1nc(=O)n(-c2ccccc2)c2cc(C(F)(F)F)ccc12 [Example 51, 4-(methylamino)-1-phenyl-7-(trifluoro-methyl)-quinazolin-2(1H)-one]

Target: T1, hMAT2A
Test: Phosphate Sensor Fluorescence Assay (MAT2A enzyme inhibition)
Format: biochemical
Conditions: L-methionine 500 uM, ATP 500 uM, class symbols
Method in brief: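 Recombinant MAT2A preincubated 15 min at room temperature with compound, then reacted 1 h at room temperature with 500 uM L-methionine and 500 uM ATP in Tris pH 7.5 buffer containing PNP/7-MEG.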

Row | IC50 [nM] | SMILES
42 | < 200 | CNc1nc(=O)n(-c2ccccc2Cl)c2cc(C3CC3)c(Br)cc12 [Example 417, 6-bromo-1-(2-chlorophenyl)-7-cyclo-propyl-4-(methylamino)hydro-quinazolin-2-one]
43 | < 200 | O=c1nc(N[C@H]2C[C@@H]2F)c2ccc(OC(F)(F)F)cc2n1-c1ccccc1Cl [Example 418, 1-(2-chlorophenyl)-4-(((1S,2S)-2-fluorocyclopropyl)amino)-7-(trifluoro-methoxy)quinazolin-2(1H)-one]
44 | < 200 | CNc1nc(=O)n(-c2cccc(CC(=O)O)c2)c2cc(Cl)ccc12 [Example 419, 2-(3-(7-chloro-4-(methylamino)-2-oxoquinazolin-1(2H)-yl)phenyl)acetic acid]
45 | < 200 | CNc1nc(=O)n(-c2ccccc2)c2cc(C(F)(F)F)cc(F)c12 [Example 420, 5-fluoro-4-(methylamino)-1-phenyl-7-(trifluoromethyl)hydroquinazolin-2-one]
46 | < 200 | O=c1nc(Nc2ccncc2)c2ccc(C(F)(F)F)nc2n1-c1ccccc1Cl [Example 421, 1-(2-chlorophenyl)-4-(pyridin-4-yl-amino)-7-(trifluoromethyl)pyrido[2,3-d]-pyrimidin-2(1H)-one]
47 | < 200 | O=c1nc(OC2CC2)c2ccc(C(F)(F)F)nc2n1-c1ccccc1Cl [Example 422, 1-(2-chlorophenyl)-4-cyclopropoxy-7-(trifluoromethyl)pyrido[2,3-d]pyrimidin-2(1H)-one]
48 | < 200 | COc1nc(=O)n(-c2ccccc2Cl)c2cc(C3CC3)ccc12 [Example 423, 1-(2-chlorophenyl)-7-cyclopropyl-4-methoxyhydroquinazolin-2-one]
49 | < 200 | O=c1nc(N[C@H]2C[C@H]2F)c2ccc(C(F)(F)F)cc2n1-c1ccccc1 [Example 424, 4-(((1S,2R)-2-fluorocyclopropyl)amino)-1-phenyl-7-(trifluoromethyl)quinazolin-2(1H)-one]
50 | < 200 | CC(F)(F)c1ccc2c(NCC3CC3)nc(=O)n(-c3ccccc3Cl)c2c1 [Example 425, 1-(2-chlorophenyl)-4-((cyclopropyl-methyl)amino)-7-(1,1-difluoroethyl)-quinazolin-2(1H)-one]
51 | < 200 | CNc1nc(=O)n(-c2ccccc2Cl)c2cc(C3CC3)ccc12 [Example 426, 1-(2-chlorophenyl)-7-cyclopropyl-4-(methylamino)quinazolin-2(1H)-one]
